The values below come from US10087209B2, “Antiviral compounds, a process for their preparation, and their use for treating viral infections” (KU LEUVEN RESEARCH & DEVELOPMENT, priority 2015, dated 2018).

Series [1] has as its system HBV wild-type strain ayw1 in HepG2 2.2.15 cells. In words: Primary anti-HBV assay: extracellular HBV DNA copy number by real-time qPCR (TaqMan). The series is classed as cell-based, Hepatitis B virus. The procedure: (§1) The primary anti-HBV assay is performed as previously described (Korba, B F and Milman, G. A cell culture assay for compound which inhibit hepatitis B virus replication. Antiviral Res. 1991, 15, 217-228; and Korba, B F and Gerin, J L. Use of a standardized cell culture assay to assess activities of nucleoside analogs again hepatitis B virus replication. Antiviral Res. 1992, 19, 55-70) with modifications to use real-time qPCR (TaqMan) to measure extracellular HBV DNA copy number associated with virions released from HepG2 2.2.15 cells. The HepG2 2.2.15 cell line is a stable human hepatoblastoma cell line that contains two copies of the HBV wild-type strain ayw1 genome and constitutively produces high levels of HBV. Antiviral compounds blocking any late step of viral replication such as transcription, translation, pregenome encapsidation, reverse transcription, particle assembly and release can be identified and characterized using this cell line.
(§2) Briefly, HepG2 2.2.15 cells are plated in 96-well microtiter plates at 1.5×10^4 cells/well in Dulbecco's Modified Eagle's Medium supplemented with 2% FBS, 380 μg/mL G418, 2.0 mM L-Glutamine, 100 units/mL Penicillin, 100 μg/mL Streptomycin, and 0.1 mM non-essential amino acids. Only the interior wells are utilized to reduce “edge effects” observed during cell culture; the exterior wells are filled with complete medium to help minimize sample evaporation. After 16-24 hours the confluent monolayer of HepG2 2.2.15 cells is washed and the medium is replaced with complete medium containing various concentrations of a test compound in triplicate Lamivudine (3TC) is used as the positive control, while media alone is added to cells as a negative control (virus control, VC). Three days later the culture medium is replaced with fresh medium containing the appropriately diluted test compounds. Six days following the initial administration of the test compound, the cell culture supernatant is collected, treated with pronase and then used in a real-time quantitative TaqMan qPCR assay. The PCR-amplified HBV DNA is detected in real-time by monitoring increases in fluorescent signal that result from the exonucleolytic degradation of a quenched fluorescent probe molecule that hybridizes to the amplified HBV DNA. For each PCR amplification, a standard curve is simultaneously generated using dilutions of purified HBV DNA. Antiviral activity is calculated from the reduction in HBV DNA levels (EC50 & EC90 values determined). A tetrazolium dye (MTS; 3-(4,5-dimethylthiazol-2-yl)-5-(3-carboxy-methoxyphenyl)-2-(4-sulfophenyl)-2H-tetrazolium; CellTiter®96 Reagent, Promega) uptake assay is then employed to measure cell viability, which is used to calculate toxicity (CC50). The Selectivity Index (SI50) is calculated as CC50/IC50.

The test system is the same in series [2]. Nature of the series: microbe, parasite or virus in culture. In kind it is cell-based. As to conditions: Hepatitis B virus. The procedure:
as §1
Briefly, HepG2 2.2.15 cells are plated in 96-well microtiter plates at 1.5×10^4 cells/well in Dulbecco's Modified Eagle's Medium supplemented with 2% FBS, 380 μg/mL G418, 2.0 mM L-Glutamine, 100 units/mL Penicillin, 100 μg/mL Streptomycin, and 0.1 mM non-essential amino acids. Only the interior wells are utilized to reduce “edge effects” observed during cell culture; the exterior wells are filled with complete medium to help minimize sample evaporation. After 16-24 hours the confluent monolayer of HepG2 2.2.15 cells is washed and the medium is replaced with complete medium containing various concentrations of a test compound in triplicate Lamivudine (3TC) is used as the positive control, while media alone is added to cells as a negative control (virus control, VC). Three days later the culture medium is replaced with fresh medium containing the appropriately diluted test compounds. Six days following the initial administration of the test compound, the cell culture supernatant is collected, treated with pronase and then used in a real-time quantitative TaqMan qPCR assay. The PCR-amplified HBV DNA is detected in real-time by monitoring increases in fluorescent signal that result from the exonucleolytic degradation of a quenched fluorescent probe molecule that hybridizes to the amplified HBV DNA. For each PCR amplification, a standard curve is simultaneously generated using dilutions of purified HBV DNA. Antiviral activity is calculated from the reduction in HBV DNA levels (EC50 & EC90 values determined). A tetrazolium dye (MTS; 3-(4,5-dimethylthiazol-2-yl)-5-(3-carboxy-methoxyphenyl)-2-(4-sulfophenyl)-2H-tetrazolium; CellTiter®96 Reagent, Promega) uptake assay is then employed to measure cell viability, which is used to calculate toxicity (CC50). The Selectivity Index (SI50) is calculated as CC50/IC50. […]

Series [3] is described as follows: MTS tetrazolium dye uptake cell viability assay (primary assay). The settings on record: human, HepG2 2.2.15 cells. The series is classed as cell-based, human. The procedure:
as §2
In general terms: Tetrazolium assays rely on reduction of a dye to a coloured formazan, in cell work by metabolically active cells.

In another series the test system is HIV-1. The settings on record: cited from earlier work.
The conditions of series [4]: read-out: CC50 (cellular cytotoxicity); cited from earlier work.
The test system of a further series is HIV-2. The settings on record: cited from earlier work.
The nature of another series: in vitro. The series is classed as cell-based. The settings on record: human; HepG2 2.2.15 cells, secondary assay. The procedure:
Briefly, HepG2 2.2.15 cells are plated in 96-well microtiter plates at 1.5×10^4 cells/well in Dulbecco's Modified Eagle's Medium supplemented with 2% FBS, 380 μg/mL G418, 2.0 mM L-Glutamine, 100 units/mL Penicillin, 100 μg/mL Streptomycin, and 0.1 mM non-essential amino acids. Only the interior wells are utilized to reduce “edge effects” observed during cell culture; the exterior wells are filled with complete medium to help minimize sample evaporation. After 16-24 hours the confluent monolayer of HepG2 2.2.15 cells is washed and the medium is replaced with complete medium containing various concentrations of a test compound in triplicate Lamivudine (3TC) is used as the positive control, while media alone is added to cells as a negative control (virus control, VC). […] Six days following the initial administration of the test compound, the cell culture supernatant is collected, treated with pronase and then used in a real-time quantitative TaqMan qPCR assay. The PCR-amplified HBV DNA is detected in real-time by monitoring increases in fluorescent signal that result from the exonucleolytic degradation of a quenched fluorescent probe molecule that hybridizes to the amplified HBV DNA. […] Antiviral activity is calculated from the reduction in HBV DNA levels (EC50 & EC90 values determined). […] The Selectivity Index (SI50) is calculated as CC50/IC50. […]

The next series relates to HepG2 2.2.15 cells. Nature of the series: MTS tetrazolium dye uptake cell viability assay (primary assay). The series is classed as cell-based, human. The procedure:
as §2

The mark [5] stands for this setting: Hepatitis B virus, 144 h, reduction in extracellular HBV DNA, HepG2 2.2.15 cells, six days, read-out: EC50.
[6] abbreviates: Hepatitis B virus, 144 h, reduction in extracellular HBV DNA, HepG2 2.2.15 cells, six days, read-out: EC90.
[7] abbreviates: Hepatitis B virus, HepG2 2.2.15, 144 h.

The structures appear in SMILES notation. pEC50, pIC50: −log10 of the molar value. Structures can show the parent of a compound that is named as a salt. A value given as a limit tells only on which side of the number the result lay.

Take `Nc1ccn([C@@H]2CS[C@H](CO)O2)c(=O)n1` [3TC (Lamivudine), Lamivudine, reference compound]: the pEC50 (as a rule, the EC50 on a negative log10 scale, so that one unit is a factor of ten) was 7.52 in series [1] (setting [5]) and greater than 8.00 in series [2] (reduction in intracellular HBV DNA, HepG2 2.2.15 cells, read-out: EC50). In addition, the EC90 (commonly the point of the concentration-response curve where the effect stands at 90%) was greater than 2 µM in series [1] (setting [6]) and greater than 2 µM in series [2] (reduction in intracellular HBV DNA, HepG2 2.2.15 cells, read-out: EC90). For the same compound, in series [3], the cytotoxic concentration (CC50) (as a rule, the concentration that lowers cell viability or growth by half) at 6 days is greater than 2 µM.
In the case of `Nc1ncnc2c1ncn2[C@H]1C[C@@H](OCP(=O)(O)O)CO1` [PMDTA, 1′α-(Adenin-9-yl)-2′-deoxy-3′-O-phosphonomethyl-L-threose triethylammonium salt, reference compound], the negative-log EC50 (pEC50) in the series on HIV-1 (read-out: EC50 value against HIV-1) was 5.60; in series [1] (setting [5]), 6.30; with HIV-2 (read-out: EC50 value against HIV-2) it was 5.60. Further, in series [1] (setting [6]), the 90% effect concentration (EC90) was greater than 100 µM. Besides, the CC50 in series [4] was greater than 316 µM. The compound further gave a 50% cytotoxic concentration (CC50) at 6 days in series [3] greater than 100 µM.
As for `Cc1cn([C@H]2C[C@@H](OCP(=O)(O)O)CO2)c(=O)[nH]c1=O` [PMDTT, 1′α-(Thymin-1-yl)-2′-deoxy-3′-O-phosphonomethyl-L-threose triethylammonium salt, reference compound], the pIC50 in the series on HIV-1 (read-out: IC50 value against HIV-1) and with HIV-2 (read-out: IC50 value against HIV-2) was 5.18 throughout. In addition, the pEC50 in series [1] (setting [5]) was 4.40. In series [1] (setting [6]), the concentration for an effect of 90% (EC90) was greater than 100 µM. Besides, the 50% cytotoxic concentration (CC50) in series [4] is greater than 343 µM. The same compound had a half-maximal cytotoxic concentration (CC50) at 6 days in series [3] greater than 100 µM.
For `CC(C)OC(=O)[C@H](C)NP(=O)(CO[C@H]1CO[C@@H](n2cnc3c(N)ncnc32)C1)Oc1ccccc1` (some centres unmarked) [compound 17], in series [1] (setting [7]), the pEC50 is 7.52 and the concentration for an effect of 90% (EC90) was greater than 10 µM. In addition, in series [3], the CC50 at 6 days was greater than 10 µM.
For `CC(C)CCOC(=O)C[C@H](NP(=O)(CO[C@H]1CO[C@@H](n2cnc3c(N)ncnc32)C1)Oc1ccccc1)C(=O)OCCC(C)C` (some centres unmarked) [compound 18], the figures for the 50% cytotoxic concentration (CC50) at 6 days (in the series “in vitro”; in series [3]) were 35.2 µM and 55.5 µM, respectively. Further, the pEC50 in series [1] (setting [7]) was 8.00; in series [2] (HepG2 2.2.15) it was greater than 8.00. Moreover, the concentration for an effect of 90% (EC90) in series [1] (setting [7]) was found to be 0.98 µM; in series [2] (HepG2 2.2.15) it was 0.36 µM.
In series [1] (setting [7]), `Cc1cn([C@H]2C[C@@H](OCP(=O)(N[C@@H](C)C(=O)OC(C)C)Oc3ccccc3)CO2)c(=O)[nH]c1=O` (some centres unmarked) [compound 20] gave a negative-log EC50 (pEC50) of 6.59 and an EC90 greater than 10 µM. The same compound registered a half-maximal cytotoxic concentration (CC50) at 6 days in series [3] greater than 100 µM.
Take `Cc1cn([C@H]2C[C@@H](OCP(=O)(N[C@@H](CC(=O)OCCC(C)C)C(=O)OCCC(C)C)Oc3ccccc3)CO2)c(=O)[nH]c1=O` (some centres unmarked) [compound 21]: in series [1] (setting [7]), the pEC50 was 6.60 and the EC90 is greater than 10 µM. It took 59.6 µM to reach half-maximal cytotoxicity in series [3] (CC50 at 6 days).
The matching figures for `CC(C)OC(=O)[C@H](C)NP(=O)(CO[C@H]1CO[C@@H](n2ccc(N)nc2=O)C1)Oc1ccccc1` (stereo partly drawn) [compound 32, 1′α-(Cytosin-1-yl)-2′-deoxy-3′-O—{[N-(isopropyl-L-alaninate)](phenoxy)-methylphosphonoamidate}-L-threose]: 4.32, greater than 100 µM and greater than 100 µM.
On to `CCCOC(=O)[C@H](Cc1ccccc1)NP(=O)(CO[C@H]1CO[C@@H](n2cnc3c(=O)[nH]c(N)nc32)C1)N[C@@H](Cc1ccccc1)C(=O)OCCC` [compound 39], for which the negative logarithm of the EC50 (pEC50) in series [1] (setting [5]) is less than 4.00. In addition, the 90% effect concentration (EC90) in series [1] (setting [6]) is greater than 100 µM. The half-maximal cytotoxic concentration (CC50) at 6 days in series [3] was greater than 100 µM.
In series [1] (setting [7]), `CC(C)OC(=O)[C@H](C)NP(=O)(CO[C@H]1CO[C@@H](n2cnc3c(=O)[nH]c(N)nc32)C1)Oc1ccccc1` (some centres unmarked) [compound 40] gave a pEC50 of less than 4.00 and an EC90 greater than 100 µM. In addition, in series [3], the cytotoxic concentration (CC50) at 6 days was greater than 100 µM.
In the case of `CC(C)OC(=O)[C@H](C)NP(=O)(COC1COC(n2cnc3c(=O)[nH]c(N)nc32)C1)Oc1ccccc1` (stereo partly drawn) [compound 41, 1′α-(Guanin-9-yl)-2′-deoxy-3′-O—{[N-(isopropyl-L-alaninate)](phenoxy)-methylphosphonoamidate}-L-threose], in series [1] (reduction in extracellular HBV DNA, HepG2 2.2.15 cells, six days, read-out: EC50), the pEC50 was less than 4.00. The EC90 in series [1] (reduction in extracellular HBV DNA, HepG2 2.2.15 cells, six days, read-out: EC90) is greater than 100 µM. The compound further returned a CC50 with HepG2 2.2.15 cells greater than 100 µM.
